# Reference: patent US20260091082A1, “CYCLIC PEPTIDE DERIVATIVE COMPOSITION FOR TREATING OR PREVENTING EYE DISEASE” (DKS Co. Ltd., priority 2022, published 2026)
# Where “and” joins values, the source holds several entries; their conditions need not be identical. Identical values can stand only once.
# Test system: anterior chamber aqueous humor pressure load rat model
# Assay: Retinal thickness (IPL, INL, ONL) in retinal damage model induced by anterior chamber aqueous humor pressure load
# Assay type: in vivo, Rat; Slc: SD
# Settings: for Thickness of INL (μm) / Thickness of IPL (μm) / Thickness of ONL (μm): 14 days after model creation, mean ± S.E., 10 animals
# Experimental: • Name: Compound 9 • Source: Synthesized in the above Examples • Used amount: 0.4 mL (50 mg/mL solution) • Storage conditions: Freezing, light shielding
# Method for preparing test substance (1 mg/mL): A high concentration solution prepared at 50 mg/mL was diluted 50 times with a medium to prepare a 1 mg/mL administration solution.
# • Name: MK-801 • Distributor: SIGMA-ALDRICH • Use amount: 0.0501 g • Storage condition: refrigerated (2° C. to 8° C.)
# Method for preparing positive control substance (10 mg/mL): 0.0501 g was weighed out and made up to a total volume of 5 mL with a control substance (physiological saline).
# • Species and strains: Rat; Slc: SD • Number of animals on arrival and sex: 50 males • Age in weeks at arrival: 6 weeks old • Body weight range at arrival: 147.2 to 170.0 g • Source: Japan SLC, Inc.
# Grouping was performed two days before the first creation of the retinal damage model induced by an anterior chamber aqueous humor pressure load. Using the daily body weight as an index, stratified random allocation was performed using SAS (Ver. 9.3, SAS Institute Japan Ltd.) and EXSUS (Ver. 8.0, CAC Croit Corporation) so that an average value of the body weights of each group was approximately uniform.
# • Administration route: Eyedrop administration, intravenous administration • Administration method (eyedrop): Eyedrop administration was performed on a treated eye (right eye) of a rat using a micropipette 4 times a day (at intervals of 1.5 hours or more). • Administration method (intravenous): The amount of administration solution, calculated from the body weight on the day of administration, was administered from the tail vein using a syringe and an injection needle about 30 minutes before ischemic load. • Time of administration: Administration was performed according to the following schedule.
# 1. 10 mg/kg xylazine hydrochloride was intramuscularly administered on the model creation day (day 0). A rat was placed in an anesthesia box and subjected to general anesthesia with isoflurane (5%, oxygen:nitrous oxide=1:3). When anesthesia was effective, the rat was taken out of the anesthesia box, an inhalation anesthetic mask was worn, and anesthesia was maintained with isoflurane (1% to 5%, oxygen nitrous oxide=1:3).
# 2. The body temperature was maintained at 37° C. with a warming mat, and a mydrin P ophthalmic solution was instilled in the right eye (treated eye) of the rat to dilate the pupil, then the cravit ophthalmic solution 1.5% (Santen Pharmaceutical Co., Ltd.) was instilled.
# 3. A bottle of an IV bag containing physiological saline was previously suspended so that a water surface was 155 cm (100 mmHg or more) higher than the eye of the rat. The IV bag was connected to a pediatric infusion set (Terumo Corporation), a 27 G injection needle thereof was inserted into and fixed to the anterior chamber while slightly dripping the liquid from a needle tip. The model was created in the light phase (6:00 to 18:00) in consideration of the diurnal variation of the intraocular pressure.
# 4. After the needle was inserted into the anterior chamber, pressure (100 mmHg or more) was loaded and maintained in the anterior chamber by associating the reflux system.
# 5. After an ischemic load for 45 minutes, the injection needle and the like were removed, the inhalation anesthetic mask was removed, and the rat was sufficiently woken up under a warming mat, and then returned to the cage.
# 6. For 2 days after surgery, 10 mg/kg xylazine hydrochloride was intramuscularly administered as an analgesic for the purpose of alleviating the pain after the treatment.
# 1. Fourteen days after model creation, general anesthesia was performed with isoflurane (5%, oxygen:nitrous oxide=1:3), euthanasia was then performed by exsanguination, a suture was placed as a marker at the 12 o'clock position of the ocular conjunctiva, and eyeball enucleation was performed.
# 2. […]
# [1] = 300 μm from optic disk, 1 mg/mL eye drop 4 times/day for 13 days from the day after model creation (test group 3)
# [2] = 300 μm from optic disk, 1 mg/mL eye drop 4 times/day for 13 days from the day after model creation (test group 3), listed as compound 9
# [3] = 300 μm from optic disk, (pre) 1 mg/mL eye drop 4 times/day on the 2 days before model creation (test group 2)
# [4] = 300 μm from optic disk, (pre) 1 mg/mL eye drop 4 times/day on the 2 days before model creation (test group 2), listed as compound 9
# [5] = 600 μm from optic disk, 1 mg/mL eye drop 4 times/day for 13 days from the day after model creation (test group 3)
# [6] = 600 μm from optic disk, 1 mg/mL eye drop 4 times/day for 13 days from the day after model creation (test group 3), listed as compound 9
# [7] = 600 μm from optic disk, (pre) 1 mg/mL eye drop 4 times/day on the 2 days before model creation (test group 2)
# [8] = 600 μm from optic disk, (pre) 1 mg/mL eye drop 4 times/day on the 2 days before model creation (test group 2), listed as compound 9
smiles,measurement,setting,value
CC[C@@]1(C)Oc2cc(ccc2O)C[C@H](NC)C(=O)N[C@@H](C(C)C)C(=O)N[C@@H]1C(=O)N[C@@H](CC(=O)O)C(=O)O [Compound 9],"Thickness of INL (μm), Distance from Optic Disk 300 μm","1 mg/mL eye drop (not pre), right eye, 300 μm from optic disk, individual measurements per animal",27.268 μm and 29.194 μm and 27.960 μm and 26.601 μm and 24.843 μm (2×) and 25.835 μm and 20.052 μm and 21.030 μm and 18.618 μm and 25.039 μm and 27.705 μm and 29.211 μm and 23.276 μm and 30.228 μm and 28.329 μm (2×) and 29.740 μm (2×) and 27.292 μm and 28.168 μm and 41.632 μm and 38.927 μm and 48.313 μm and 31.260 μm and 35.869 μm and 37.963 μm and 31.090 μm and 28.954 μm and 30.909 μm
same,"Thickness of IPL (μm), Distance from Optic Disk 300 μm","1 mg/mL eye drop (not pre), right eye, 300 μm from optic disk, individual measurements per animal, listed as compond 9",32.198 μm and 30.002 μm and 34.224 μm and 39.119 μm and 37.558 μm and 34.827 μm and 27.585 μm and 28.700 μm and 33.412 μm and 37.176 μm (3×) and 37.457 μm and 36.016 μm and 35.842 μm and 37.411 μm and 38.117 μm and 35.930 μm and 36.185 μm and 37.237 μm and 38.550 μm and 39.901 μm and 45.876 μm and 47.765 μm and 46.968 μm and 35.532 μm and 36.791 μm and 36.389 μm and 42.704 μm and 39.019 μm
same,"Thickness of INL (μm), Distance from Optic Disk 300 μm, Mean","1 mg/mL eye drop (not pre), right eye, 300 μm from optic disk, mean per animal",28.141 μm and 25.760 μm and 19.900 μm and 25.862 μm and 27.572 μm and 28.454 μm and 28.746 μm and 42.957 μm and 35.031 μm and 30.318 μm
same,"Thickness of IPL (μm), Distance from Optic Disk 300 μm, Mean","1 mg/mL eye drop (not pre), right eye, 300 μm from optic disk, mean per animal, listed as compond 9",32.141 μm and 37.168 μm and 29.899 μm and 36.883 μm and 36.810 μm and 36.744 μm and 38.563 μm and 46.870 μm and 36.237 μm and 39.633 μm
same,"Thickness of INL (μm), Distance from Optic Disk 600 μm","1 mg/mL eye drop (not pre), right eye, 600 μm from optic disk, individual measurements per animal",24.738 μm and 26.582 μm and 31.689 μm and 28.581 μm and 25.207 μm and 26.625 μm and 29.576 μm and 28.954 μm and 37.237 μm and 34.673 μm and 26.256 μm and 29.926 μm and 35.484 μm and 34.715 μm and 36.694 μm and 38.253 μm and 32.381 μm and 33.458 μm and 33.871 μm and 36.611 μm and 27.419 μm and 34.733 μm and 25.544 μm and 26.908 μm and 37.411 μm and 29.937 μm and 35.493 μm and 34.034 μm and 32.419 μm and 29.046 μm
same,"Thickness of IPL (μm), Distance from Optic Disk 600 μm","1 mg/mL eye drop (not pre), right eye, 600 μm from optic disk, individual measurements per animal, listed as compond 9",38.128 μm and 36.322 μm and 43.429 μm and 43.876 μm and 37.066 μm and 37.938 μm and 42.704 μm and 40.500 μm and 46.031 μm and 45.964 μm and 42.314 μm (2×) and 45.398 μm and 49.200 μm and 42.129 μm and 48.205 μm and 50.755 μm and 43.015 μm and 42.630 μm and 42.759 μm and 41.121 μm and 42.214 μm and 37.880 μm and 41.066 μm and 41.515 μm and 38.919 μm and 45.161 μm and 49.299 μm and 44.538 μm and 46.083 μm
same,"Thickness of INL (μm), Distance from Optic Disk 600 μm, Mean","1 mg/mL eye drop (not pre), right eye, 600 μm from optic disk, mean per animal",26.246 μm and 31.668 μm and 25.792 μm and 28.479 μm and 36.440 μm and 28.706 μm and 35.231 μm and 36.327 μm and 32.753 μm and 33.176 μm
same,"Thickness of IPL (μm), Distance from Optic Disk 600 μm, Mean","1 mg/mL eye drop (not pre), right eye, 600 μm from optic disk, mean per animal, listed as compond 9",38.524 μm and 43.173 μm and 37.628 μm and 41.423 μm and 44.503 μm and 42.210 μm and 45.497 μm and 49.420 μm and 43.394 μm and 43.719 μm
same,"Thickness of INL (μm), Distance from Optic Disk 900 μm","1 mg/mL eye drop (not pre), right eye, 900 μm from optic disk, individual measurements per animal",23.463 μm and 23.821 μm and 26.168 μm and 31.627 μm and 31.452 μm and 31.822 μm and 18.956 μm and 25.938 μm and 21.867 μm and 22.952 μm and 23.718 μm and 22.465 μm and 26.601 μm and 27.289 μm and 29.587 μm and 30.400 μm and 26.367 μm and 26.057 μm and 35.226 μm and 33.688 μm and 33.919 μm and 36.066 μm and 40.039 μm and 42.383 μm and 29.394 μm and 29.751 μm and 27.773 μm and 29.233 μm and 27.808 μm and 25.454 μm
same,"Thickness of IPL (μm), Distance from Optic Disk 900 μm","1 mg/mL eye drop (not pre), right eye, 900 μm from optic disk, individual measurements per animal, listed as compond 9",39.528 μm and 37.965 μm and 40.039 μm and 50.240 μm and 47.772 μm and 44.149 μm and 38.417 μm and 36.462 μm and 38.383 μm and 39.277 μm and 38.777 μm and 38.865 μm and 45.233 μm and 47.955 μm and 43.645 μm and 43.616 μm and 43.735 μm and 42.098 μm and 53.201 μm and 48.131 μm and 47.334 μm and 50.136 μm and 51.594 μm and 51.265 μm and 43.640 μm and 42.918 μm and 42.582 μm and 46.425 μm and 48.902 μm and 47.239 μm
same,"Thickness of INL (μm), Distance from Optic Disk 900 μm, Mean","1 mg/mL eye drop (not pre), right eye, 900 μm from optic disk, mean per animal",24.484 μm and 31.634 μm and 22.254 μm and 23.045 μm and 27.826 μm and 27.608 μm and 34.278 μm and 39.496 μm and 28.973 μm and 27.498 μm
same,"Thickness of IPL (μm), Distance from Optic Disk 900 μm, Mean","1 mg/mL eye drop (not pre), right eye, 900 μm from optic disk, mean per animal, listed as compond 9",39.177 μm and 47.387 μm and 37.754 μm and 38.973 μm and 45.611 μm and 43.150 μm and 49.555 μm and 50.998 μm and 43.047 μm and 47.522 μm
same,Thickness of INL (μm),[1],29.27±1.94 μm
same,Thickness of IPL (μm),[1],37.09±1.42 μm
same,Thickness of ONL (μm),[1],42.79±2.60 μm
same,Thickness of INL (μm),[2],29.27 ± 1.94 μm
same,Thickness of ONL (μm),[2],42.79 ± 2.60 μm
same,Thickness of INL (μm),[3],28.93±1.27 μm
same,Thickness of IPL (μm),[3],31.31±0.93 μm
same,Thickness of ONL (μm),[3],40.06±1.61 μm
same,Thickness of INL (μm),[4],28.93 ± 1.27 μm
same,Thickness of ONL (μm),[4],40.06 ± 1.61 μm
same,Thickness of INL (μm),[5],31.48±1.26 μm
same,Thickness of IPL (μm),[5],42.95±1.07 μm
same,Thickness of ONL (μm),[5],42.33±1.81 μm
same,Thickness of INL (μm),[6],31.48 ± 1.26 μm
same,Thickness of ONL (μm),[6],42.33 ± 1.81 μm
same,Thickness of INL (μm),[7],31.25±1.29 μm
same,Thickness of IPL (μm),[7],38.85±1.23 μm
same,Thickness of ONL (μm),[7],43.03±0.82 μm
same,Thickness of INL (μm),[8],31.25 ± 1.29 μm
same,Thickness of ONL (μm),[8],43.03 ± 0.82 μm
